Source: US20220160751A1, “METHODS OF TREATMENT OF DISEASES AND DISORDERS ASSOCIATED WITH INCREASED TET LEVEL, INCREASED H19 LEVEL, INCREASED LEVEL OF TGF SIGNALING, OR ANY COMBINATION THEREOF” (YALE UNIVERSITY, priority 2019, published 2022)

Assays:
[1] = test system: MED12, TGFBR2 and TSP1 promoters; test: ChIP-qPCR, methylation profiling and QMSP in leiomyoma cells; format: cell-based, human; settings: vs siCon
Experimental: gDNA was extracted from primary leiomyoma cells from one well of 24-well plates using Quick-gDNA MicroPrep (Zymo Research Corporation, Irvine, Calif.; D3021) according to the manufacturer's instructions. For bisulfite treatment, 200 ng of gDNA was used for each column using EZ DNA Methylation-Gold Kit (Zymo, D5006). 100 μl of elution buffer was used to elute gDNA from each column. Real-time quantitative PCR was performed in a 15 μl reaction containing 5 μl of the eluted gDNA using iQSYBRGreen (Bio-Rad, Hercules, Calif.; 1708880) in a Bio-Rad iCycler. Two sets of PCR primers were designed: one for unmethylated and one for methylated DNA sequences. The PCR primers for methylated DNA were used at a final concentration of 0.6 μM in each PCR reaction. PCR was performed by initial denaturation at 95° C. for 5 min, followed by 40 cycles of 30 sec at 95° C., 30 sec at 60° C., and 30 sec at 72° C. Specificity was verified by melting curve analysis and agarose gel electrophoresis. The threshold cycle (Ct) values of each sample were used in the post-PCR data analysis. The relative levels of methylated versus unmethylated DNA sequences are presented.
These experiments were performed as previously described (Zhou J et al., 2015, Nat Commun 6:10221) with minor modifications. Briefly, experiments were performed in a 10-cm plate scale using the Pierce Agarose ChIP Kit (Thermo Scientific, 26156) according to the manufacturer's instructions with minor modifications. Agarose beads were used to pre-bind overnight with antibodies against TET3 (Millipore Sigma, ABE290), H3K4me3 (Cell signaling, C42D8) and H3K27me3 (Cell signaling, C36B11). Preimmune IgG was used as a negative control. Cells were cross-linked with 1% formaldehyde at room temperature for 10 min, and the reaction was stopped by 1× glycine. ChIPs were carried out overnight at 4° C. Primers for the specific promoter regions of MED12, TGFBR2, and TSP1 (FIG. 16A) were used to amplify input and ChIP-purified DNA. The relative enrichments of the indicated DNA regions were calculated using the Percent Input Method according to the manufacturer's instructions and were normalized to % input. Data are presented after normalization against background IgG signals.

[2] = test system: LX-2 human hepatic stellate cells; test: qPCR and immunoblotting of gene expression in LX-2 cells; format: cell-based
Experimental: LX-2 human hepatic stellate cells (Yale Liver Center) were maintained in DMEM (Gibco, 11965-092) supplemented with 10% heat-inactivated fetal bovine serum (Gibco, 26140-079) and 1% PS (penicillin and streptomycin) at 37° C. in 5% humidified CO2 tissue culture incubator. Generally, cells were plated and transfected in a 24-well plate scale. For transfection with siRNA, let-7, or iLet7, 10 pmol of siTET3 (or siCon), let-7 (or miCon), or iLet7 (iCon) were mixed with 25 μl of OPTI-MEM (Gibco, 31985-070) by gentle pipetting. In parallel, 1 μl of Lipofectamine 3000 (ThermoFisher Scientific, L3000015) was mixed with 25 μl of OPTI-MEM. Then, the contents from the two tubes were mixed by gentle pipetting. After incubation for 5 min at RT, the resulting 50 μl solution was used to resuspend cell pellet (5×10^4 cells). After incubation at RT for 10 min, 450 μl of growth medium was added and the cell suspension was transferred into one well of a 24-well plate. For transfection with TET3-expression plasmid pTET3 (pcDNA-Flag-Tet3, Addgene plasmid #60940, (30)) or control vector, 5×10^4 cells per well were seeded in a 24-well plate the night before transfection. The next day, 0.75 μg of pTET3 (or Vec) were mixed with 1 μl of P3000 in 25 μl of OPTI-MEM by gentle pipetting. In parallel, 0.5 μl of Lipofectamine 3000 were mixed with 25 μl of OPTI-MEM. The contents from the two tubes were combined by gentle pipetting and incubated for 5 min at RT. The resulting 50 μl of transfection solution was added to each well of cells seeded in a 24-well plate the night before and from which the growth medium had been removed. After 6 h of incubation in a tissue culture incubator, 500 μl of growth medium were added to each well of cells. For TGF-β1 (Sigma, USA) treatment experiments, transfected cells were incubated in 500 μl of serum-free DMEM containing 5 ng/mL TGF-β1 (diluted with HCl) or HCl (as control) for 24 h or 48 h as indicated.
Total RNA was extracted from cultured cells or liver tissue samples using PureLink RNA Mini Kit (Ambion, 12183018A). 0.8 μg of total RNA was reverse transcribed to cDNA in a reaction volume of 10 μl using PrimeScript RT Reagent Kit (TAKARA, RR037A). Quantitative real-time PCR reactions were carried out using iQSYBRGreen (Bio-Rad) in a Bio-Rad iCycler. Gene expression levels were normalized against housekeeping genes HPRT1 and RPLP0.
For liver tissue samples, 5-10 mg of tissues were homogenized by sonication (Qsonica, Model Q125) in 150 μl of 2×SDS-sample buffer. Samples were immediately heated at 100° C. for 3 min with occasional vertexing. Then, 100 μl of 2×SDS-sample buffer was added to each sample and the 250 μl of tissue lysate were further homogenized by sonication and heated again at 100° C. for 3-5 min with vertexing once every 15 sec. Samples (further diluted at 1:1 with 2×SDS-sample buffer before loading) were loaded 5-10 μl per well onto a 4-15% gradient SDS gel, followed by Western blot analysis. Image J was used to quantify the protein bands.

siTET3: TET3-specific siRNA (human), Ambion 4392420/s47239 (sense CAGCAACUCCUAGAACUGATT; antisense UCAGUUCUAGGAGUUGCUGGA; chemistry not given here)
binding of TET3 to MED12, TGFBR2 and TSP1 promoters (ChIP-qPCR) ([1]; UtLM cells, 48 h): significantly reduced | H3K4me3 association with promoters ([1]; UtLM cells): significantly decreased H3K4me3 | H3K27me3 association with promoters ([1]; UtLM cells): increased H3K27me3 | decrease of the ratios of H3K4me3/H3K27me3 ([1]; UtLM cells): 5-8 fold | methylation of CpGs within the CTRRs of MED12, TGFBR2 and TSP1 promoters ([1]; ht-UtLM genome-wide profiling, confirmed in UtLM by QMSP, 48 h): increased methylation of the CpGs within the CTRRs | expression of TGFB1, TSP1 and TGFBR2 (mRNA and protein) ([2]; 48 h post-transfection, vs siCon or Vec): decreased expression of TGFB1, TSP1 and TGFBR2 | TGF-β1-induced TGF-β signaling and profibrotic gene expression ([2]; TET3 siRNA 24 h, then TGF-β1 5 ng/mL 24 h): the effects were no longer observed
